Results on nine molecules are retold here after US12371454B2, “Cyclic peptide compound having Kras inhibitory action” (priority 2019, dated 2025).

Starred links: 1 amine or outer side, 2 acyl side, 3 side chain; linkers in the order of their positions; H or OH if unused. Positions of bridges follow the written chain, without caps; N, C: chain ends. Non-standard residues stand in square brackets, D forms with d. Residues, ends and D or L forms follow the SMILES beside them. *: point of attachment. hPhe(3-Cl-4-CF3) = N[C@@H](CCc1ccc(C(F)(F)F)c(Cl)c1)C(=O)O; hPhe(4-CF3) = N[C@@H](CCc1ccc(C(F)(F)F)cc1)C(=O)O; X46 = COc1cncc(C[C@@H](C(=O)[*:2])N(C)[*:1])c1; NMePhe(4-Cl) = CN[C@@H](Cc1ccc(Cl)cc1)C(=O)O; NMePhe(4-Me) = CN[C@@H](Cc1ccc(C)cc1)C(=O)O; NMePhe(3-F) = CN[C@@H](Cc1cccc(F)c1)C(=O)O; NMePhe(4-F) = CN[C@@H](Cc1ccc(F)cc1)C(=O)O; X20 = O=C([C@H](Cc1ccc(Br)s1)N[*:1])[*:2]; X22 = O=C([C@@H]1Cc2ccccc2N1[*:1])[*:2]; NMeGly(cPent) = CN[C@H](C(=O)O)C1CCCC1; dβ3hPip = O=C(C[C@H]1CCCCN1[*:1])[*:2]; NMeCha = CN[C@@H](CC1CCCCC1)C(=O)O; NMeChg = CN[C@H](C(=O)O)C1CCCCC1; NMeI = CC[C@H](C)[C@H](NC)C(=O)O; NMeD = CN[C@@H](CC(=O)O)C(=O)O; NMeL = CN[C@@H](CC(C)C)C(=O)O; NMeV = CN[C@H](C(=O)O)C(C)C; d(β3hA) = C[C@@H](N)CC(=O)O; NMeS = CN[C@@H](CO)C(=O)O; NMeA = CN[C@@H](C)C(=O)O; NMeAib = CNC(C)(C)C(=O)O; Nle = CCCC[C@H](N)C(=O)O; Piperidide = C1CCN(*)CC1; Pyrrolidide = C1CCN(*)C1; Ac5c = NC1(C(=O)O)CCCC1; Aze = O=C(O)[C@@H]1CCN1; Sar = CNCC(=O)O; Propyl = CCC*

For this test, the target named is T1, Kras and SOS1 (biotin-tagged human Kras loaded with GDP, His-tagged human SOS1) (Homo sapiens, UniProt P01116, G12D).
T1 construct: made in house; host or cells: E. coli (stated for Kras only)
T1 sequence (P01116 1-188 isoform P01116-2 G12D): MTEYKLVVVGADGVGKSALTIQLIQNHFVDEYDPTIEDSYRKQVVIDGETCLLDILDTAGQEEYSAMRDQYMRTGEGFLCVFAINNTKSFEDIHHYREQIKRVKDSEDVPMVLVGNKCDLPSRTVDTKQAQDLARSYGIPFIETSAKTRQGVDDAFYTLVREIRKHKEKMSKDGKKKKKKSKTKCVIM
Put plainly: Protein-protein interaction inhibition between Kras and SOS1 (KrasGl2D-SOS PPI) using AlphaScreen. The test is classed as binding. To be noted: AlphaScreen; biotin-tagged human Kras loaded with GDP, His-tagged human SOS1; read-out: KRAS G12D-SOS PPI IC50. An outline of the steps: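 Energy transfer from nickel-chelate donor beads bound to His-SOS1 to streptavidin acceptor beads bound to biotin-Kras, expressed in E. coli and loaded with GDP after purification, was monitored. Donors were excited at 680 nm; singlet oxygen reaching acceptors gave emission read at 520-620 nm.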
Background: Alpha assays give light when donor and acceptor beads are brought close together.
In general, IC50 refers to the midpoint of a concentration-inhibition curve. As for `CCCOC[C@H]1C(=O)N(C)[C@@H](CC(C)C)C(=O)N[C@H](C(=O)N2CCCC2)CC(=O)N(C)[C@@H](C)C(=O)N[C@@H]([C@@H](C)CC)C(=O)N(C)CC(=O)N(C)CC(=O)N(C)[C@@H](Cc2ccc(Cl)cc2)C(=O)N(C)CC(=O)N[C@@H](CCc2ccc(C(F)(F)F)cc2)C(=O)N[C@@H](CC(C)C)C(=O)N1C` [Compound 739] ([NMeA]I[Sar][Sar][NMePhe(4-Cl)][Sar][hPhe(4-CF3)]L[NMeS](Propyl)[NMeL]D-Pyrrolidide; lactam N-11), the IC50 stood at 36 nM.
As for `CC[C@H](C)[C@@H]1NC(=O)[C@H](CC(C)C)N(C)C(=O)C[C@@H](C(=O)N(C)C)N(C)C(=O)[C@H](C2CCCC2)N(C)C(=O)C2(CCCC2)NC(=O)[C@@H]2CCCN2C(=O)[C@H](CCc2ccc(C(F)(F)F)c(Cl)c2)NC(=O)CN(C)C(=O)[C@H](Cc2ccc(C)cc2)N(C)C(=O)CN(C)C(=O)CN(C)C1=O` [Compound 1779] ([NMeL]I[Sar][Sar][NMePhe(4-Me)][Sar][hPhe(3-Cl-4-CF3)]P[Ac5c][NMeGly(cPent)][NMeD]-NMe2; lactam N-11), the IC50 is 0.52 nM.
For `CC[C@H](C)[C@@H]1NC(=O)[C@H](C)N(C)C(=O)C[C@@H](C)NC(=O)[C@H](C2CCCC2)N(C)C(=O)C2(CCCC2)NC(=O)[C@@H]2CCCN2C(=O)[C@H](CCc2ccc(C(F)(F)F)c(Cl)c2)NC(=O)CN(C)C(=O)[C@H](Cc2ccc(F)cc2)N(C)C(=O)[C@@H]2CCCN2C(=O)CN(C)C1=O` [Compound 146] (cyclo([Ac5c][NMeGly(cPent)][d(β3hA)][NMeA]I[Sar]P[NMePhe(4-F)][Sar][hPhe(3-Cl-4-CF3)]P)) the value was 4 nM; for `CCCC[C@@H]1NC(=O)[C@H](Cc2ccc(Br)s2)NC(=O)CN(C)C(=O)[C@H](Cc2ccc(Cl)cc2)N(C)C(=O)CN(C)C(=O)CN(C)C(=O)[C@H]([C@@H](C)CC)NC(=O)[C@H](CC(C)C)N(C)C(=O)C[C@@H](C(=O)N2CCCCC2)N(C)C(=O)[C@H](CC(C)C)NC(=O)C(C)(C)N(C)C1=O` [Compound 1216] ([NMeL]I[Sar][Sar][NMePhe(4-Cl)][Sar][X20][Nle][NMeAib]L[NMeD]-Piperidide; lactam N-11), 120 nM.
`CC[C@H](C)[C@@H]1NC(=O)[C@H](CC(C)C)N(C)C(=O)C[C@@H](C(=O)N2CCCCC2)N(C)C(=O)[C@H](C2CCCCC2)N(C)C(=O)C2(CCCC2)NC(=O)[C@@H]2Cc3ccccc3N2C(=O)[C@H](CCc2ccc(C(F)(F)F)c(Cl)c2)NC(=O)CN(C)C(=O)[C@H](CC2CCCCC2)N(C)C(=O)[C@@H]2CCN2C(=O)CN(C)C1=O` [Compound 725] ([NMeL]I[Sar][Aze][NMeCha][Sar][hPhe(3-Cl-4-CF3)][X22][Ac5c][NMeChg][NMeD]-Piperidide; lactam N-11): the IC50 turned out to be 7.8 nM.
On to `CC[C@H](C)[C@@H]1NC(=O)[C@H](C)N(C)C(=O)C[C@@H](C)NC(=O)[C@H](C2CCCC2)N(C)C(=O)C2(CCCC2)NC(=O)[C@@H]2CCCN2C(=O)[C@H](CCc2ccc(C(F)(F)F)c(Cl)c2)NC(=O)CN(C)C(=O)[C@H](Cc2cccc(F)c2)N(C)C(=O)[C@@H]2CCCN2C(=O)CN(C)C1=O` [Compound 194] (cyclo([Ac5c][NMeGly(cPent)][d(β3hA)][NMeA]I[Sar]P[NMePhe(3-F)][Sar][hPhe(3-Cl-4-CF3)]P)), for which the IC50 turned out to be 27 nM.
`CC[C@H](C)[C@@H]1NC(=O)[C@H](C)N(C)C(=O)C[C@@H](C(=O)N2CCCCC2)N(C)C(=O)[C@H](C(C)C)N(C)C(=O)C2(CCCC2)NC(=O)[C@@H]2CCCN2C(=O)[C@H](CCc2ccc(C(F)(F)F)c(Cl)c2)NC(=O)CN(C)C(=O)[C@H](Cc2ccc(F)cc2)N(C)C(=O)[C@@H]2CCCN2C(=O)CN(C)C1=O` [Compound 1698] ([NMeA]I[Sar]P[NMePhe(4-F)][Sar][hPhe(3-Cl-4-CF3)]P[Ac5c][NMeV][NMeD]-Piperidide; lactam N-11): the IC50 was determined as 1.2 nM.
Turning to `CC[C@H](C)[C@@H]1NC(=O)[C@H](CC(C)C)N(C)C(=O)C[C@@H](C(=O)N2CCCCC2)N(C)C(=O)[C@H](C2CCCCC2)N(C)C(=O)C2(CCCC2)NC(=O)[C@H](Cc2cncc(OC)c2)N(C)C(=O)[C@H](CCc2ccc(C(F)(F)F)c(Cl)c2)NC(=O)CN(C)C(=O)[C@H](CC2CCCCC2)N(C)C(=O)[C@@H]2CCN2C(=O)CN(C)C1=O` [Compound 770] ([NMeL]I[Sar][Aze][NMeCha][Sar][hPhe(3-Cl-4-CF3)][X46][Ac5c][NMeChg][NMeD]-Piperidide; lactam N-11), the 50% inhibitory concentration (IC50) worked out at 20 nM.
Consider `CC[C@H](C)[C@@H]1NC(=O)[C@H](CC(C)C)N(C)C(=O)C[C@H]2CCCCN2C(=O)[C@H]([C@@H](C)CC)N(C)C(=O)C2(CCCC2)NC(=O)[C@@H]2CCCN2C(=O)[C@H](CCc2ccc(C(F)(F)F)c(Cl)c2)NC(=O)CN(C)C(=O)[C@H](Cc2ccc(C)cc2)N(C)C(=O)[C@@H]2CCN2C(=O)[C@H](C)N(C)C1=O` [Compound 1912] (cyclo([Ac5c][NMeI][dβ3hPip][NMeL]I[NMeA][Aze][NMePhe(4-Me)][Sar][hPhe(3-Cl-4-CF3)]P)), for which the IC50 stood at 27 nM.
